Experimental data published in patent publication US6384061B1, “Hydantoin compounds and methods related thereto” (LG Chemical Ltd., priority 2000, dated 2002).

Experiments:
[1] = target: T1, Geranylgeranyl transferase (Bos taurus, UniProt P29702+Q5EAD5); experiment: Geranylgeranyl transferase inhibiting activity (geranylgeranyl pyrophosphate, Ras-CVIL substrate); assay type: biochemical; conditions: geranylgeranyl transferase purified from bovine brain, read-out: GGtase IC50
T1 construct: Geranylgeranyl transferase was purified from bovine brain; from tissue; host or cells: bovine brain
Description: To evaluate the selective enzyme inhibiting activity of the compound according to the present invention, inhibiting activity on geranylgeranyl transferase was measured. Geranylgeranyl transferase was purified from bovine brain with the method modified from Schber's method(Schber et al., J. Biol. Chem. 1990, 265, 14701). and substantially the same experiment as that of farnesyl transferase was performed using geranylgeranyl pyrophosphate and Ras-CVIL substrate protein under the similar condition to farnesyl transferase reaction.

Ras farnesyl transferase = target: T2, Ras farnesyl transferase (Homo sapiens, UniProt P49354+P49356); experiment: Ras farnesyl transferase inhibiting activity (filter-binding, tritium-farnesylpyrophosphate, Ras-CVLS substrate); assay type: biochemical; conditions: recombinant Ras farnesyl transferase, 30 minutes at 37° C., read-out: Ftase IC50
T2 construct: made in house
Description: The enzyme reaction was performed in 50 μl of 50 mM Sodium HEPES buffer solution containing 25 mmol of potassium chloride. 25 mmol of magnesium chloride, 10 mmol of DTT and 50 μmol of zinc chloride. 1.5 μmol of Ras substrate protein, 0.15 μmol of tritium-farnesylpyrophosphate and 4.5 nmol of farnesyl transferase were used.
More specifically, in the initial step, farnesyl transferase was added to the above buffer solution, reaction was maintained for 30 minutes at 37° C. and then the reaction was stopped by adding 1 ml of ethanol solution containing 1M HCl. The formed precipitates were adsorbed to GF/B filter using Hopper harvestor(Hopper #225V) for filter-binding, washed with ethanol, and then radioactivity of the dried filter was measured using LKB β counter. Enzyme titer was measured in the unsaturated state of substrate where the concentrations of Ras substrate protein and farnesyl transferase have quantitative relationship. Enzyme inhibiting activity was measured using less than 5% of total reaction solution of the compound according to the present invention dissolved in dimethylsulfoxide(DMSO) solution as a reagent. Enzyme inhibiting activity was represented by percentage of the amount of the farnesyl incorporated with the reagent to that without the reagent.

[2] = test system: intracellular Ras farnesyl transferase, Rat2 cell line; experiment: Intracellular Ras farnesyl transferase inhibiting activity in transformed Rat2 cells (35S-methionine labelling, Y13-259 immunoprecipitation, SDS-PAGE); assay type: cell-based; conditions: Rattus norvegicus; transformed Rat2 fibroblast cell line; concentration inhibiting 50% of farnesyl binding of Ras protein; read-out: Ftase CIC50
Description: In the present experiment, Rat2 cell line which expresses C-Harvey-Ras protein having transforming activity and Rat2 cell line(Korean patent application No. 97-14409) which is transformed with fused protein of H-Ras substituted with polybasic lysine domain at C-terminus of K-Ras were used. The experiment was performed by the modified Declue's method(Declue. J. E. et al., Cancer Research, 1991. 51, 712). Hereinafter, the experimental method will be described in more detail.
3×10^5 cells of transformed Rat2 fibroblast cell line were sprayed on 60 mm cell cultivation dish and cultivated for 48 hours in a cell incubator at 37° C. and after 50% or more of density was reached, it was treated with a reagent. The compound according to the present invention dissolved in dimethylsulfoxide(DMSO) was used as the reagent. 1% of dimethylsulfoxide was used in both control and experimental groups. After 4 hours from the treatment of the reagent, methionine labeled with 150 μCi of radioactive isotope, ^35S per 1 ml of medium, was added and after cultivating for 20 hours, the cells were washed with physiological saline water. The cells were lysed using 1 ml of cool cell lysis buffer solution(50 mM of Sodium Herpiss buffer solution containing 5 mmol of magnesium chloride. 1 mmol of DTT, 1% NP 40, 1 mmol of EDTA, 1 mmol of PMSF, 2 μmol of leupeptin, 2 μmol of pepstatin A and 2 μmol of antipain) and the supernatant was obtained by high-velocity centrifugation of 12,000 g×5 minutes. The amount of the labeled radioisotope of the supernatent was measured and standardized to obtain a quantitative result in immunoprecipitation reaction and then. Y13-259, monoclonal antiboby specifically binding to Ras protein(Furth, M. E. et al., J. Virol, 1982, 43, 294) was added and reacted for 15 hours at 4° C. Protein A bound to goat anti-murine Immunoglobulin antibody-agarose suspension was added to the solution and reacted for 1 hour at 4° C. and then, to remove unspecific binding product, immunoprecipitates were washed with buffer solution(50 mM Tris chloride buffer solution containing 50 mmol of sodium chloride, 0.5% of sodium dioxycolate, 0.5% of NP 40 and 0.1% of SDS). The precipitates were boiled in reagent buffer solution for electrophoresis and then, electrophoresis was performed using 13.5% of SDS polyacrylamide gel. After electrophoresis, the gel was fixed and dried. Then, the gel was exposed to X-ray film, developed and printed. From the result of the experiment, intensities of band of protein with and without farnesyl of Ras protein were measured, and the concentration of reagent inhibiting 50% of farnesyl binding was defined as CIC50, an intracellular Ras farnesyl transferase inhibiting activity.

Compound	IC50 [1] [µM]	IC50 (Ras farnesyl transferase) [µM]	IC50 [2] [µM]
CC1(c2cccc3ccccc23)C(=O)N(CCCn2ccnc2)C(=O)N1Cc1ccc(CNS(C)(=O)=O)cc1 (stereo not drawn) [Compound 37, N-{4-[3-(3-imidazol-1-yl-propyl)-5-methyl-5-naphthalen-1-yl-2,4-dioxo-imidazolidin-1-ylmethyl]-benzyl}-methanesulfonamide]	> 10	0.35	< 20
COC(=O)c1ccc(CN2C(=O)N(CCCn3ccnc3)C(=O)C2(C)c2cccc3ccccc23)cc1 (stereo not drawn) [Compound 38, 4-[3-(3-imidazol-1-yl-propyl)-5-methyl-5-naphthalen-1-yl-2,4-dioxo-imidazolidin-1-ylmethyl]-benzoic acid methyl ester]	> 10	0.25	< 20
CC1(c2cccc3ccccc23)C(=O)N(CCCn2ccnc2)C(=O)N1Cc1ccc(C(=O)O)cc1 (stereo not drawn) [Compound 39, 4-[3-(3-imidazol-1-yl-propyl)-5-methyl-5-naphthalen-1-yl-2,4-dioxo-imidazolidin-1-ylmethyl]-benzoic acid]	> 10	0.2	< 20
CC1(c2cccc3ccccc23)C(=O)N(CCCn2ccnc2)C(=O)N1Cc1ccc(C(=O)N2CCOCC2)cc1 (stereo not drawn) [Compound 40]	> 10	1.4	< 20
COCCNC(=O)c1ccc(CN2C(=O)N(CCCn3ccnc3)C(=O)C2(C)c2cccc3ccccc23)cc1 (stereo not drawn) [Compound 41, 4-[3-(3-imidazol-1-yl-propyl)-5-methyl-5-naphthalen-1-yl-2,4-dioxo-imidazolidin-1-ylmethyl]-N-(2-methoxy-ethyl)-benzamide]	> 10	0.53	< 20
COCCN(C)C(=O)c1ccc(CN2C(=O)N(CCCn3ccnc3)C(=O)C2(C)c2cccc3ccccc23)cc1 (stereo not drawn) [Compound 42, 4[3-(3-imidazol-1-yl-propyl)-5-methyl-5-naphthalen-1-yl-2,4-dioxo-imidazolidin-1-ylmethyl]-N-(2-methoxy-ethyl)-N-methyl-benzamide]	> 10	1	< 20
CC1(c2cccc3ccccc23)C(=O)N(CCCn2ccnc2)C(=O)N1Cc1ccc(C(=O)N2CCN(C(=O)OCc3ccccc3)CC2)cc1 (stereo not drawn) [Compound 43, 4-{4-[3-(3-imidazol-1-yl-propyl)-5-methyl-5-naphthalen-1-yl-2,4-dioxo-imidazolidin-1-ylmethyl]-benzoyl}-piperazine-1-carboxylic acid benzyl ester]	> 10	5	< 20
CC1(c2cccc3ccccc23)C(=O)N(CCCn2ccnc2)C(=O)N1Cc1cccc(C(=O)N2CCSCC2)c1 (stereo not drawn) [Compound 44, 3-(3-imidazol-1-yl-propyl)-1-[3-(thiomorpholine-4-carbonyl)-benzyl]-5-methyl-5-naphthalen-1-yl-imidazolidin-2,4-dione]	> 10	8	< 20
CC1(c2cccc3ccccc23)NC(=O)N(CCCc2cncn2Cc2ccc(C#N)cc2)C1=O (stereo not drawn) [Compound 45, 4-{5-[3-(4-methyl-4-naphthalen-1-yl-2,5-dioxo-imidazolidin-1-yl)-propyl]-imidazol-1-ylmethyl}benzonitrile]	> 10	5.5	< 20
CN1C(=O)N(CCCc2cncn2Cc2ccc(C#N)cc2)C(=O)C1(C)c1cccc2ccccc12 (stereo not drawn) [Compound 46, 4-{5-[3-(3-methyl-4-methyl-4-naphthalen-1-yl-2,5-dioxo-imidazolidin-1-yl)-propyl]-imidazol-1-ylmethyl}-benzonitrile]	> 10	0.044	< 20
CCN1C(=O)N(CCCc2cncn2Cc2ccc(C#N)cc2)C(=O)C1(C)c1cccc2ccccc12 (stereo not drawn) [Compound 47, 4-{5-[3-(3-ethyl-4-methyl-4-naphthalen-1-yl-2,5-dioxo-imidazolidin-1-yl)-propyl]-imidazol-1-ylmethyl}benzonitrile]	> 10	0.018	< 20
CCCN1C(=O)N(CCCc2cncn2Cc2ccc(C#N)cc2)C(=O)C1(C)c1cccc2ccccc12 (stereo not drawn) [Compound 48, 4-{5-[3-(3-propyl-4-methyl-4-naphthalen-1-yl-2,5-dioxo-imidazolidin-1-yl)-propyl]-imidazol-1-ylmethyl}benzonitrile]	> 10	0.04	< 20

The next lines start with results.

IC50 [1] [µM]	IC50 (Ras farnesyl transferase) [µM]	Compound	IC50 [2] [µM]
> 10	0.725	CC1(c2cccc3ccccc23)C(=O)N(CCCn2ccnc2)C(=O)N1Cc1ccc(S(C)(=O)=O)c(C#N)c1 (stereo not drawn) [Compound 30, 5-[3-(3-imidazol-1-yl-propyl)-5-methyl-5-naphthalen-1-yl-2,4-dioxo-imidazolidin-1-ylmethyl]-2-methylsulfonyl-benzonitrile]	< 20
> 10	0.9	CC1(c2cccc3ccccc23)C(=O)N(CCCn2ccnc2)C(=O)N1Cc1ccccc1C#N (stereo not drawn) [Compound 31, 2-[3-(3-imidazol-1-yl-propyl)-5-methyl-5-naphthalen-1-yl-2,4-dioxo-imidazolidin-1-ylmethyl]-benzonitrile]	< 20
> 10	0.092	CC1(c2cccc3ccccc23)C(=O)N(CCCn2ccnc2)C(=O)N1Cc1cccc(C#N)c1 (stereo not drawn) [Compound 32, 3-[3-(3-imidazol-1-yl-propyl)-5-methyl-5naphthalen-1-yl-2,4-dioxo-imidazolidin-1-ylmethyl]-benzonitrile]	< 20
> 10	1.3	CC1(c2cccc3ccccc23)C(=O)N(CCCn2ccnc2)C(=O)N1Cc1ccc(C#N)cc1 (stereo not drawn) [Compound 33, 4-[3-(3-imidazol-1-yl-propyl)-5-methyl-5-naphthalen-1-yl-2,4-dioxo-imidazolidin-1-ylmethyl]-benzonitrile]	< 20
> 10	2.1	CC1(c2cccc3ccccc23)C(=O)N(CCCn2ccnc2)C(=O)N1Cc1ccc(CN)cc1 (stereo not drawn) [Compound 34, 1-(4-aminomethyl-benzyl)-3-(3-imidazol-1-yl-propyl)-5-methyl-5-naphthalen-1-yl-imidazolidin-2,4-dione]	< 20
> 10	0.5	CC1(c2cccc3ccccc23)C(=O)N(CCCn2ccnc2)C(=O)N1Cc1ccccc1CNS(C)(=O)=O (stereo not drawn) [Compound 35, N-{2-[3-(3-imidazol-1-yl-propyl)-5-methyl-5-naphthalen-1-yl-2,4-dioxo-imidazolidin-1-ylmethyl]-benzyl}-methanesulfonamide]	< 20
> 10	1.2	CC1(c2cccc3ccccc23)C(=O)N(CCCn2ccnc2)C(=O)N1Cc1cccc(CNS(C)(=O)=O)c1 (stereo not drawn) [Compound 36, N-{3-[3-(3-imidazol-1-yl-propyl)-5-methyl-5-naphthalen-1-yl-2,4-dioxo-imidazolidin-1-ylmethyl]-benzyl}-methanesulfonamide]	< 20
